Measurements reported in patent US12630515B2, “Small molecule prostagladin transport inhibitors” (ALBERT EINSTEIN COLLEGE OF MEDICINE, priority 2019, dated 2026).

The compounds below were run against T1, rat PGT (Rattus norvegicus, UniProt Q00910) (assay: PGT inhibition: [3H]PGE2 uptake in MDCK cells stably transfected with rat PGT). Conditions: room temperature.
T1 construct: expressed in transfected cells
Type: cell-based
Method: MDCK cells stably transfected with rat PGT ae seeded at 15-20% confluence on 96-well deepwell plates. The day on which the cells are seeded is considered day 1. PGE2 uptake experiments are conducted on day 4. All of the PGE2 uptake experiments are conducted at room temperature. On day 4, cells are washed twice with Waymouth buffer (135 mM NaCl, 13 mM H-Hepes, 13 mM Na-Hepes, 2.5 mM CaCl2, 1.2 mM MgCl2, 0.8 mM MgSO4, 5 mM KCl, and 28 mM D-glucose). Then 200 μL of Waymouth buffer containing [^3H]PGE2 (available from Perkin Elmer) is added to each well. At the designed time, the uptake of [^3H]PGE2 is stopped by aspiration of uptake buffer; followed by immediate washing twice with 500 μL of chilled Waymouth buffer. Cells are then lysed with 100 μL lysis buffer containing 0.25% SDS and 0.05 N NaOH. 1.5 mL of scintillation solution is added to each well, and intracellular [^3H]PGE2 is counted via a Beta Counter.
For preliminary testing of the compounds, 20 μL of Waymouth buffer containing the compound is added to each well; this was immediately followed by the addition of 180 μL of Waymouth buffer containing [^3H]PGE2. In each well, the total volume of uptake medium is 200 μL. Test compounds are first dissolved in organic solvent, such as EtOH, and then diluted in Waymouth buffer. The percent inhibition of [^3H]PGE2 uptake by compounds is calculated as [(uptakevehicle−uptakeinhibitor)÷(uptakevehicle)]×100.
To determine IC50 of each compound, Waymouth buffer containing various concentrations of the compound is added to each well; immediately followed by the addition of 180 μL of Waymouth buffer containing [^3H]PGE2. IC50 was calculated by fitting the following equation. y=m1-m1*(m0/(m2+m0)).

CCC(CC)(CCC(=O)O)c1csc(Nc2ccccc2Cl)n1 [Cmp. 8, 4-[2-(2-chloroanilino)thiazol-4-yl]-4-ethyl-hexanoic acid] and CCC(CC)(CCC(=O)O)c1csc(Nc2ccccc2OC)n1 (racemic) [Cmp. 7, 4-ethyl-4-[2-(2-methoxyanilino)thiazol-4-yl]hexanoic acid] cannot be ordered by IC50: < 10000 nM for the first, < 10000 nM for the second.

CCC(CC)(CCC(=O)O)c1csc(Nc2ccc(C(F)(F)F)cc2)n1 [compound 31, 4-ethyl-4-(2-((4-(trifluoromethyl)phenyl)amino)thiazol-4-yl)hexanoic acid] and CCC(CC)(CCC(=O)O)c1csc(Nc2ccc(C)cc2)n1 [Cmp. 2, 4-ethyl-4-[2-(4-methylanilino)thiazol-4-yl]hexanoic acid] cannot be ordered by IC50: < 20000 nM for the first, < 100000 nM for the second.

CCC(CC)(CCC(=O)O)c1nc(Nc2ccccc2O)sc1C [Cmp. 10, 4-ethyl-4-[2-(2-hydroxyanilino)-5-methyl-thiazol-4-yl]hexanoic acid] and CCC(CC)(CCC(=O)O)c1nc(Nc2ccc(F)cc2F)sc1C [Cmp. 21, 4-[2-(2,4-difluoroanilino)-5-methyl-thiazol-4-yl]-4-ethyl-hexanoic acid] cannot be ordered by IC50: < 1000 nM for the first, < 1000 nM for the second.

CCC(CCC(=O)O)(C(=O)OCC(C)C)c1cncc(Nc2ccc(C)cc2)n1 (racemic) [compound 35, 4-(isobutoxycarbonyl)-4-(6-(p-tolylamino)pyrazin-2-yl)hexanoic acid] and CCOC(=O)C(CC)(CCC(=O)O)c1cncc(Nc2ccc(C)cc2)n1 (racemic) [Cmp. 5, 4-ethoxycarbonyl-4-[6-(4-methylanilino)pyrazin-2-yl]hexanoic acid] cannot be ordered by IC50: < 10000 nM for the first, < 10000 nM for the second.

CCOC(=O)C(CC)(CCC(=O)O)c1nc(Nc2ccccc2Cl)sc1Cl (racemic) [Cmp. 27 (RS), 4-[5-chloro-2-(2-chloroanilino)thiazol-4-yl]-4-ethoxycarbonyl-hexanoic acid] and CCOC(=O)C(CC)(CCC(=O)O)c1nc(Nc2ccc(Cl)cc2Cl)sc1Cl (racemic) [compound 40, 4-(5-chloro-2-((2,4-dichlorophenyl)amino)thiazol-4-yl)-4-(ethoxycarbonyl)hexanoic acid] cannot be ordered by IC50: < 1000 nM for the first, < 1000 nM for the second.

CCOC(=O)C(CC)(CCC(=O)O)c1ccnc(Nc2ccc(C)cc2)n1 (stereo not drawn) [Cmp. 13, 4-ethoxycarbonyl-4-[2-(4-methylanilino)pyrimidin-4-yl]hexanoic acid] and CCOC(=O)C(CC)(CCC(=O)O)c1csc(Nc2ccc(C)cc2)n1 (racemic) [Cmp. 3, 4-ethoxycarbonyl-4-[2-(4-methylanilino)thiazol-4-yl]hexanoic acid] cannot be ordered by IC50: < 10000 nM for the first, < 20000 nM for the second.

CCOC(=O)C(CC)(CCC(=O)O)c1cncc(Nc2ccc(O)c(F)c2)n1 (racemic) [compound 37, 4-(ethoxycarbonyl)-4-(6-((3-fluoro-4-hydroxyphenyl)amino)pyrazin-2-yl)hexanoic acid] and CCOC(=O)C(CC)(CCC(=O)O)c1cncc(Nc2ccc(F)cc2F)n1 (racemic) [Cmp. 11, 4-[6-(2,4-difluoroanilino)pyrazin-2-yl]-4-ethoxycarbonyl-hexanoic acid] cannot be ordered by IC50: < 1000 nM for the first, < 1000 nM for the second.

CCC(CC)(CCC(=O)O)c1csc(-c2ccccc2)n1 [compound 30, 4-ethyl-4-(2-phenylthiazol-4-yl)hexanoic acid] and CCC(CC)(CCC(=O)O)c1csc(Nc2cccc(OC)c2)n1 [Cmp. 9, 4-ethyl-4-[2-(3-methoxyanilino)thiazol-4-yl]hexanoic acid] cannot be ordered by IC50: < 10000 nM for the first, < 10000 nM for the second.

CCC(CC)(CCC(=O)O)c1nnc(Nc2ccc(C)cc2)o1 [compound 33, 4-ethyl-4-(5-(p-tolylamino)-1,3,4-oxadiazol-2-yl)hexanoic acid] and CCC(CC)(CCC(=O)O)c1coc(Nc2ccc(C)cc2)n1 [compound 32, 4-ethyl-4-(2-(p-tolylamino)oxazol-4-yl)hexanoic acid] cannot be ordered by IC50: < 10000 nM for the first, < 100000 nM for the second.

CCOC(=O)C(CC)(CCC(=O)O)c1nc(Nc2ccc(F)cc2F)sc1C (racemic) [compound 34, 4-(2-((2,4-difluorophenyl)amino)-5-methylthiazol-4-yl)-4-(ethoxycarbonyl)hexanoic acid] and CCOC(=O)C(CC)(CCC(=O)O)c1nc(Nc2ccc(Cl)cc2Cl)sc1C (racemic) [Cmp. 23, 4-[2-(2,4-dichloroanilino)-5-methyl-thiazol-4-yl]-4-ethoxycarbonyl-hexanoic acid] cannot be ordered by IC50: < 10000 nM for the first, < 1000 nM for the second.

CCc1ncc(Nc2ccc(F)cc2F)nc1C(CC)(CC)CCC(=O)O [Cmp. 19, 4-[6-(2,4-difluoroanilino)-3-ethyl-pyrazin-2-yl]-4-ethyl-hexanoic acid] and CCC(CC)(CCC(=O)O)c1cncc(Nc2ccc(F)cc2F)n1 [Cmp. 18, 4-[6-(2,4-difluoroanilino)pyrazin-2-yl]-4-ethyl-hexanoic acid] cannot be ordered by IC50: < 1000 nM for the first, < 1000 nM for the second.

CCC(CC)(CCC(=O)O)c1cncc(Nc2cc(F)c(F)cc2F)n1 [Cmp. 29, 4-ethyl-4-[6-(2,4,5-trifluoroanilino)pyrazin-2-yl]hexanoic acid] and CCC(CCC(=O)O)(COC)c1cncc(Nc2ccc(F)cc2F)n1 (racemic) [compound 38, 4-(6-((2,4-difluorophenyl)amino)pyrazin-2-yl)-4-(methoxymethyl)hexanoic acid] cannot be ordered by IC50: < 1000 nM for the first, < 10000 nM for the second.

CCOC(=O)C(CC)(CCC(=O)O)c1nc(Nc2ccc(Cl)cc2Cl)sc1Br (racemic) [Cmp. 14b, 4-[5-bromo-2-(2,4-dichloroanilino)thiazol-4-yl]-4-ethoxycarbonyl-hexanoic acid] and CCOC(=O)C(CC)(CCC(=O)O)c1csc(Nc2ccc(Cl)cc2Cl)n1 (racemic) [Cmp. 14a, 4-[2-(2,4-dichloroanilino)thiazol-4-yl]-4-ethoxycarbonyl-hexanoic acid] cannot be ordered by IC50: < 1000 nM for the first, < 1000 nM for the second.

CCOC(=O)C(CC)(CCC(=O)O)c1csc(Nc2ccc(F)cc2F)n1 (racemic) [Cmp. 6, 4-[2-(2,4-difluoroanilino)thiazol-4-yl]-4-ethoxycarbonyl-hexanoic acid] and CCOC(=O)C(CC)(CCC(=O)O)c1csc(Nc2ccccc2O)n1 (racemic) [Cmp. 1, 4-ethoxycarbonyl-4-[2-(2-hydroxyanilino)thiazol-4-yl]hexanoic acid] cannot be ordered by IC50: < 10000 nM for the first, < 1000 nM for the second.

CCOC(=O)C(CC)(CCC(=O)O)c1cncc(Nc2ccccc2OC)n1 (racemic) [Cmp. 17, 4-ethoxycarbonyl-4-[6-(2-methoxyanilino)pyrazin-2-yl]hexanoic acid] and CCOC(=O)C(CC)(CCC(=O)O)c1cncc(Nc2cc(F)ccc2F)n1 (racemic) [Cmp. 20, 4-[6-(2,5-difluoroanilino)pyrazin-2-yl]-4-ethoxycarbonyl-hexanoic acid] cannot be ordered by IC50: < 1000 nM for the first, < 1000 nM for the second.

CCOC(=O)C(CCC(=O)O)(CC1CC1)c1cncc(Nc2ccc(C)cc2)n1 (racemic) [compound 36, 4-(cyclopropylmethyl)-5-ethoxy-5-oxo-4-(6-(p-tolylamino)pyrazin-2-yl)pentanoic acid] and CCC(CCC(=O)O)(C(=O)OC1(C)CC1)c1cncc(Nc2ccc(F)cc2F)n1 (racemic) [compound 39, 4-(6-((2,4-difluorophenyl)amino)pyrazin-2-yl)-4-((1-methylcyclopropoxy)carbonyl)hexanoic acid] cannot be ordered by IC50: < 10000 nM for the first, < 1000 nM for the second.

CCC(CC)(CCC(=O)O)c1cncc(Nc2ccccc2Cl)n1 [Cmp. 28, 4-[6-(2-chloroanilino)pyrazin-2-yl]-4-ethyl-hexanoic acid] and CCOC(=O)C(CC)(CCC(=O)O)c1nc(Nc2ccccc2Cl)sc1Cl (single isomer, unassigned) [27 (enantiomer 1)] cannot be ordered by IC50: < 1000 nM for the first, < 1000 nM for the second.

CCC(CC)(CCC(=O)O)c1nc(Nc2ccc(F)cc2F)sc1Br [Cmp. 22b, 4-[5-bromo-2-(2,4-difluoroanilino)thiazol-4-yl]-4-ethyl-hexanoic acid] and CCC(CC)(CCC(=O)O)c1nc(Nc2ccc(Cl)cc2Cl)sc1C [Cmp. 24, 4-[2-(2,4-dichloroanilino)-5-methyl-thiazol-4-yl]-4-ethyl-hexanoic acid] cannot be ordered by IC50: < 1000 nM for the first, < 1000 nM for the second.
